“And” between values parts separate entries of the source, which are not always exact repeats. Identical values can stand only once. Toxic doses and inconclusive results are not listed. Cut-off read from the data, not from the text of the source: active = T/C of 150% or more; inactive = T/C below 125%.
Tested on: L1210 leukemia ip in BDF1 mice, survival T/C
Assay: NCI In Vivo Anticancer Drug Screen. Data for tumor model L1210 Leukemia (intraperitoneal) in B6D2F1 (BDF1) mice
Details: endpoint: mean survival time, higher = longer survival
In short: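 Value reflects the ratio of survival in compound-treated mice to survival in vehicle-treated controls, with both groups carrying the same transplanted tumor.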

[1] = dose: 100.0 mg/kg/injection, schedule: Q04DX003 (ip), vehicle: saline with Tween-80
[2] = dose: 200.0 mg/kg/injection, schedule: Q04DX003 (ip), vehicle: saline with Tween-80
[3] = dose: 400.0 mg/kg/injection, schedule: Q04DX002 (ip), vehicle: saline with Tween-80
[4] = dose: 400.0 mg/kg/injection, schedule: Q04DX003 (ip), vehicle: saline with Tween-80
[5] = dose: 100.0 mg/kg/injection, schedule: Q01DX001 (ip), vehicle: saline
[6] = dose: 200.0 mg/kg/injection, schedule: Q01DX001 (ip), vehicle: saline
[7] = dose: 100.0 mg/kg/injection, schedule: Q04DX003 (ip), vehicle: Klucel (hydroxypropylcellulose) (HPC)
[8] = dose: 200.0 mg/kg/injection, schedule: Q04DX003 (ip), vehicle: Klucel (hydroxypropylcellulose) (HPC)
[9] = dose: 400.0 mg/kg/injection, schedule: Q04DX003 (ip), vehicle: Klucel (hydroxypropylcellulose) (HPC)
[10] = dose: 100.0 mg/kg/injection, schedule: Q01DX009 (ip), vehicle: Klucel (hydroxypropylcellulose) (HPC)
[11] = dose: 200.0 mg/kg/injection, schedule: Q01DX009 (ip), vehicle: Klucel (hydroxypropylcellulose) (HPC)
[12] = dose: 400.0 mg/kg/injection, schedule: Q01DX009 (ip), vehicle: Klucel (hydroxypropylcellulose) (HPC)
[13] = dose: 100.0 mg/kg/injection, schedule: Q01DX009 (ip), vehicle: saline with Tween-80
[14] = dose: 100.0 mg/kg/injection, schedule: Q04DX002 (ip), vehicle: saline with Tween-80
[15] = dose: 200.0 mg/kg/injection, schedule: Q01DX009 (ip), vehicle: saline with Tween-80
[16] = dose: 200.0 mg/kg/injection, schedule: Q04DX002 (ip), vehicle: saline with Tween-80
[17] = dose: 400.0 mg/kg/injection, schedule: Q01DX009 (ip), vehicle: saline with Tween-80
[18] = dose: 100.0 mg/kg/injection, schedule: Q04DX002 (ip), vehicle: Klucel (hydroxypropylcellulose) (HPC)

Measured: T/C

c1ccc([Si]2(c3ccccc3)[Si](c3ccccc3)(c3ccccc3)[Si](c3ccccc3)(c3ccccc3)[Si](c3ccccc3)(c3ccccc3)[Si](c3ccccc3)(c3ccccc3)[Si]2(c2ccccc2)c2ccccc2)cc1
inactive: [1] 102 % of control | dose: 160.0 mg/kg/injection, schedule: Q04DX002 (ip), vehicle: saline with Tween-80 86 % of control | [2] 94 % of control | [3] 86 % of control | [4] 96 % of control

OC(c1ccccc1)C(c1ccccc1)N1CCCC1 (configuration not stated)
inactive: dose: 75.0 mg/kg/injection, schedule: Q01DX001 (ip), vehicle: saline 94 % of control | dose: 150.0 mg/kg/injection, schedule: Q01DX001 (ip), vehicle: saline 97 % of control | dose: 300.0 mg/kg/injection, schedule: Q01DX001 (ip), vehicle: saline 92 % of control

CC(=O)c1ccccc1OB(F)F
inactive: dose: 50.0 mg/kg/injection, schedule: Q01DX001 (ip), vehicle: saline 98 % of control | [5] 98 % of control | [6] 106 % of control

O=C1CCC(=S)N1c1ccccc1
inactive: [7] 101 % of control | [8] 100 % of control | [9] 95 % of control

O=C(NCN1C(=O)c2ccccc2C1=O)NCN1C(=O)c2ccccc2C1=O
inactive: [10] 95 % of control | [11] 102 % of control | [12] 92 % of control

Cc1cc(NC(=O)CCc2ccc(N3C(N)=NC(N)=NC3(C)C)cc2)ccc1S(=O)(=O)F
inactive: dose: 4.0 mg/kg/injection, schedule: Q03HX024 (ip), vehicle: other 104 % of control | dose: 7.82 mg/kg/injection, schedule: Q12HX018 (ip), vehicle: acetone 106 % of control | dose: 8.0 mg/kg/injection, schedule: Q03HX008 (ip), vehicle: other 117 % of control | dose: 8.0 mg/kg/injection, schedule: Q03HX024 (ip), vehicle: other 114 % of control | dose: 15.62 mg/kg/injection, schedule: Q12HX018 (ip), vehicle: acetone 105 % of control | dose: 16.0 mg/kg/injection, schedule: Q01DX009 (ip), vehicle: other 112 % of control | dose: 16.0 mg/kg/injection, schedule: Q03HX008 (ip), vehicle: other 104 % of control | dose: 16.0 mg/kg/injection, schedule: Q03HX024 (ip), vehicle: other 114 % of control | dose: 18.0 mg/kg/injection, schedule: Q## X018 (ip), vehicle: saline 118 % of control | dose: 25.0 mg/kg/injection, schedule: Q01DX001 (ip), vehicle: Klucel (hydroxypropylcellulose) (HPC) 103 % of control | dose: 31.25 mg/kg/injection, schedule: Q12HX018 (ip), vehicle: acetone 113 % of control | dose: 32.0 mg/kg/injection, schedule: Q01DX009 (ip), vehicle: other 120 % of control | dose: 32.0 mg/kg/injection, schedule: Q03HX008 (ip), vehicle: other 109 % of control | dose: 32.0 mg/kg/injection, schedule: Q03HX024 (ip), vehicle: other 117 % of control | dose: 32.0 mg/kg/injection, schedule: Q04DX003 (ip), vehicle: other 109 % of control | dose: 50.0 mg/kg/injection, schedule: Q01DX001 (ip), vehicle: Klucel (hydroxypropylcellulose) (HPC) 105 % of control | dose: 64.0 mg/kg/injection, schedule: Q01DX001 (ip), vehicle: other 95 % of control | dose: 64.0 mg/kg/injection, schedule: Q01DX009 (ip), vehicle: other 117 % of control | dose: 64.0 mg/kg/injection, schedule: Q03HX008 (ip), vehicle: other 111 % of control | dose: 64.0 mg/kg/injection, schedule: Q04DX003 (ip), vehicle: other 104 % of control | dose: 100.0 mg/kg/injection, schedule: Q01DX001 (ip), vehicle: Klucel (hydroxypropylcellulose) (HPC) 101 % of control and 92 % of control | dose: 200.0 mg/kg/injection, schedule: Q01DX001 (ip), vehicle: Klucel (hydroxypropylcellulose) (HPC) 92 % of control | dose: 400.0 mg/kg/injection, schedule: Q01DX001 (ip), vehicle: Klucel (hydroxypropylcellulose) (HPC) 92 % of control

CC(C)(C#N)N=NC(C)(C)C#N
inactive: dose: 25.0 mg/kg/injection, schedule: Q01DX009 (ip), vehicle: alcohol 96 % of control | dose: 50.0 mg/kg/injection, schedule: Q01DX009 (ip), vehicle: alcohol 96 % of control | dose: 50.0 mg/kg/injection, schedule: Q04DX003 (ip), vehicle: alcohol 98 % of control | dose: 100.0 mg/kg/injection, schedule: Q04DX003 (ip), vehicle: alcohol 95 % of control

CN(Cc1ccccc1)C(=O)NC1CCCCC1
inactive: dose: 25.0 mg/kg/injection, schedule: Q01DX009 (ip), vehicle: saline 100 % of control and 101 % of control | dose: 50.0 mg/kg/injection, schedule: Q01DX009 (ip), vehicle: saline 100 % of control and 101 % of control | [13] 102 % of control | dose: 100.0 mg/kg/injection, schedule: Q01DX009 (ip), vehicle: saline 97 % of control and 100 % of control | [14] 94 % of control and 96 % of control | [1] 101 % of control | [15] 94 % of control and 105 % of control | dose: 200.0 mg/kg/injection, schedule: Q01DX009 (ip), vehicle: saline 96 % of control and 97 % of control | [16] 96 % of control and 100 % of control | [2] 102 % of control | [17] 95 % of control and 105 % of control | [3] 100 % of control and 92 % of control | [4] 95 % of control

O=[N+]([O-])c1ccc(N/N=C2\CCC3CC23)c([N+](=O)[O-])c1 (configuration not stated)
inactive: dose: 25.0 mg/kg/injection, schedule: Q04DX002 (ip), vehicle: Klucel (hydroxypropylcellulose) (HPC) 105 % of control | dose: 50.0 mg/kg/injection, schedule: Q04DX002 (ip), vehicle: Klucel (hydroxypropylcellulose) (HPC) 102 % of control | [18] 97 % of control

BrC(Br)c1cnc2ccccc2n1
inactive: dose: 50.0 mg/kg/injection, schedule: Q01DX009 (ip), vehicle: Klucel (hydroxypropylcellulose) (HPC) 107 % of control | [10] 92 % of control | [11] 101 % of control

O=c1c(Cl)c(C(Cl)(Cl)Cl)c2ccccc2n1O
inactive: [7] 101 % of control | [8] 86 % of control

CCOc1ccc(NC(=O)c2cccc(C(=O)Nc3ccc(OCC)cc3)c2)cc1
inactive: [10] 104 % of control | [7] 91 % of control | [11] 101 % of control | [8] 98 % of control | [12] 95 % of control | [9] 93 % of control

Cc1ccnc(NC(=O)Nc2ccccc2Cl)c1
inactive: [18] 90 % of control | dose: 200.0 mg/kg/injection, schedule: Q04DX002 (ip), vehicle: Klucel (hydroxypropylcellulose) (HPC) 93 % of control | dose: 400.0 mg/kg/injection, schedule: Q04DX002 (ip), vehicle: Klucel (hydroxypropylcellulose) (HPC) 118 % of control

O=C(Nc1ccc(Cl)cc1[N+](=O)[O-])OCC1CC2C=CC1C2 (configuration not stated)
inactive: dose: 100.0 mg/kg/injection, schedule: Q01DX001 (ip), vehicle: saline with Tween-80 94 % of control and 87 % of control | [13] 94 % of control and 98 % of control | [14] 96 % of control and 97 % of control | [1] 94 % of control and 98 % of control | dose: 200.0 mg/kg/injection, schedule: Q01DX001 (ip), vehicle: saline with Tween-80 93 % of control and 102 % of control | [15] 100 % of control | [16] 97 % of control and 100 % of control | [2] 98 % of control and 101 % of control | dose: 400.0 mg/kg/injection, schedule: Q01DX001 (ip), vehicle: saline with Tween-80 97 % of control and 101 % of control | [17] 100 % of control | [3] 93 % of control and 87 % of control | [4] 100 % of control and 91 % of control

CCOC(=O)N1C2CCC(C2)N1C(=O)OCC
inactive: [5] 103 % of control | [6] 100 % of control | dose: 400.0 mg/kg/injection, schedule: Q01DX001 (ip), vehicle: saline 103 % of control

O=C(Oc1ccccc1Cl)c1ccc(Cl)cc1Cl
inactive: [10] 91 % of control | [7] 93 % of control | [11] 90 % of control | [8] 96 % of control | [12] 91 % of control | [9] 98 % of control

N#CC(C(=O)c1ccccc1)c1ccccc1 (configuration not stated)
inactive: dose: 62.5 mg/kg/injection, schedule: Q04DX002 (ip), vehicle: Klucel (hydroxypropylcellulose) (HPC) 108 % of control | dose: 125.0 mg/kg/injection, schedule: Q04DX002 (ip), vehicle: Klucel (hydroxypropylcellulose) (HPC) 96 % of control
